Experiment [1] concerns the target Glutamate NMDA receptor. In words: Inhibition of [3H]dizocilpine binding to N-methyl-D-aspartate (NMDA) receptor complex in rat brain membranes. It is filed as cell membranes.
Experiment [2] is filed under the species Rattus norvegicus. In words: Inhibitory activity (10.0 uM) against NMDA (30 uM) and glycine (10 uM) induced increase in [Ca2+]i in cultured forebrain neurons from fetal rat. The experiment is classed as functional. More on the design: scale not given: the % may be the effect or the level left.
Experiment [3] is filed under the species Rattus norvegicus. The experiment is described as follows: Protective potency against glutamate-induced neurotoxicity in cultures of embryonic rat brain at a concentration of 100 uM+Glutamate (100 uM). The experiment is classed as functional.
For experiment [4], the species on record is Rattus norvegicus. The experiment is described as follows: Protective potency against glutamate-induced neurotoxicity in cultures of embryonic rat brain at a compound concentration of 10 uM. The experiment is classed as functional.
For experiment [5], the species on record is Rattus norvegicus. The experiment is described as follows: Protective potency against glutamate-induced neurotoxicity in cultures of embryonic rat brain at a compound concentration of 10 uM+Glutamate (100 uM). It is filed as functional.
Experiment [6] is filed under the species Rattus norvegicus. In words: Inhibitory activity (1.0 uM) against NMDA (30 uM) and glycine (10 uM) induced increase in [Ca2+]i in cultured forebrain neurons from fetal rat. It is filed as functional. Further details: scale not given: the % may be the effect or the level left.
Experiment [7] is filed under the species Rattus norvegicus. The experiment is described as follows: Protective potency against glutamate-induced neurotoxicity in cultures of embryonic rat brain at a compound concentration of 100 uM. The experiment is classed as functional.
The species named for experiment [8] is Rattus norvegicus. The experiment is described as follows: Inhibitory activity (0.1 uM) against NMDA (30 uM) and glycine (10 uM) induced increase in [Ca2+]i in cultured forebrain neurons from fetal rat. More on the design: scale not given: the % may be the effect or the level left. The experiment is classed as functional.
The species named for experiment [9] is Rattus norvegicus. The experiment is described as follows: Protective potency against glutamate-induced neurotoxicity in cultures of embryonic rat brain at a concentration of 100 uM (p < 0.05). It is filed as functional.

pIC50: −log10 of the molar value.

In the case of `N#Cc1ccc(N2CCCN(c3ccc(C#N)cc3)CC2)cc1`, the pIC50 (in general, the negative decadic logarithm of the IC50, by convention in mol/L) in experiment [1] is 4.34.

In experiment [1], `C(=C1/CCCN(c2ccc(C3=NCCN3)cc2)C1)/c1ccc(C2=NCCN2)cc1` had a pIC50 of 5.08.

In experiment [1], `c1cc(C2=NCCN2)ccc1OC[C@@H]1C[C@H]1COc1ccc(C2=NCCN2)cc1` showed a pIC50 of 4.78.

For the compound `N=C(N)c1ccc(OC[C@@H]2C[C@H]2COc2ccc(C(=N)N)cc2)cc1`, the pIC50 in experiment [1] was 4.93.

Consider `N=C(N)c1ccc(N2CCCN(c3ccc(C(=N)N)cc3)CC2)cc1`, for which the Activity turned out to be 37.58% in experiment [2]; 98% in experiment [3]; 100% in experiment [4]; 99% in experiment [5]; 67.04% in [6]; 87% in [7]. The Activity in [8] is listed as 111.26%. Further, the pIC50 in experiment [1] was 5.92.

Compound `C(=C1CCN(Cc2ccc(C3=NCCN3)cc2)CC1)c1ccc(C2=NCCN2)cc1` gave a pIC50 in experiment [1] of 4.45.

Consider `c1cc(N2CCN(c3ccc(C4=NCCN4)cc3)CC2)ccc1C1=NCCN1`, for which the pIC50 in experiment [1] was 4.74.

Take `N=C(N)c1ccc(N2CCN(c3ccc(C(=N)N)cc3)CC2)cc1`: the negative-log IC50 (pIC50) in [1] is 5.27.

In experiment [1], `c1cc(N2CCCN(c3ccc(C4=NCCN4)cc3)CC2)ccc1C1=NCCN1` gave a pIC50 of 5.30.

In the case of `N=C(N)c1ccc(NC(=O)c2cccc(C(=O)Nc3ccc(C(=N)N)cc3)c2)cc1`, in [1], the pIC50 was under 3.70.

Consider `c1cc(C2=NCCN2)ccc1CC1CCN(c2ccc(C3=NCCN3)cc2)CC1`, for which the pIC50 in experiment [1] was 5.20.

Consider `c1cc(C2=NCCN2)ccc1CC1CCCN(c2ccc(C3=NCCN3)cc2)C1` (configuration not stated), for which, in experiment [1], the negative logarithm of the IC50 (pIC50) is 5.11.

`N=C(N)c1ccc(NC(=O)c2cccc(C(=O)Nc3ccc(C(=N)N)cc3)n2)cc1` gave a pIC50 in [1] of 4.18.

As for `N[C@@H](CCC(=O)O)C(=O)O` [GLUTAMIC ACID], in [9], the Activity is recorded as 60%.

On to `N=C(N)c1ccc(OCCCCCOc2ccc(C(=N)N)cc2)cc1` [PENTAMIDINE], for which, in experiment [1], the pIC50 was 5.59.

For the origin of these results see ChEMBL document CHEMBL1132046, “Novel bisbenzamidines and bisbenzimidazolines as noncompetitive NMDA receptor antagonists” (Bioorg Med Chem Lett, 1999).
